Source: patent US10842892B2, “Methods and apparatus for synthesizing imaging agents, and intermediates thereof” (Lantheus Medical Imaging, Inc., priority 2010, dated 2020)
“And” between values parts separate entries of the source, which are not always exact repeats. Equal values may be shown once.

Experiments:
heart wall = details: primate-derived estimates; cited from earlier work
control and MI rabbits = test: cardiovascular evaluation (ECG, arterial pressure) after injection in control and MI rabbits; format: in vivo, rabbit
Procedure: PET images and cardiovascular parameters were evaluated in both normal and MI rabbits. Prior to imaging, the rabbit was anesthetized with ketamine (25 mg/Kg, im) and xylazine (5 mg/Kg, im) and the marginal ear vein was catheterized for imaging agent 1 injection. The right femoral artery was isolated and canulated with a Millar catheter (SPC340, Millar Instruments, Houston, Tex.) for arterial pressure measurement. Then the animal was positioned in a microPET camera (Focus220, CTI Molecular Imaging, Inc. Knoxville, Tenn.) for cardiac imaging. The Millar catheter was connected to a computer driven data acquisition system (MP35, BIOPAC Systems, Goleta, Calif.) for recording of mean arterial pressure (MAP), and systolic and diastolic arterial pressure (SAP and DAP). In addition, electrocardiogram (ECG) was also recorded with 3 non-invasive limb leads in lead II configuration using the BIOPAC system. Heart rate (HR) and QT interval were derived from ECG recording. After a stabilization period, cardiovascular parameters: MAP, SBP, DBP and ECG, were recorded 5 minutes before imaging agent 1 intravenous injection (˜1.5 mCi) and the recording continued for additional 20 minutes post-injection. The rabbit was imaged for 30 minutes.
Data are expressed as mean±SD and unpaired student t-test (assuming unequal variances) was used for comparison of baseline values between control and MI rabbits. p<0.05 was considered statistically significant. At each timepoint (before and 1-, 5-, 10- and 20-minute after imaging agent 1 injection), MAP, SAP and DAP measured intraarterially averaged every 10-second, and HR and QTc interval derived from ECG recording averaged every 12 heart beats. The QT interval was manually defined by one investigator and QTc was generated from QT corrected by RR interval using Fridericia method (QTc=QT/RR1/3).9

[1] = system: stress induced myocardial perfusion abnormalities; test: rest-stress imaging agent 1 PET versus Tc-99m Sestamibi SPECT MPI, single center; format: in vivo, human; details: myocardial segments supplied by diseased coronary arteries, 13 patients
Procedure: Thirteen patients, from a single center, underwent rest-stress Tc-99m Sestamibi SPECT MPI, rest-stress imaging agent 1 PET MPI and coronary angiography. In each patient, 17 myocardial segments were visually scored for rest and stress images by independent observers who were blinded to all other results. For each patient, summed stress scores (SSS), summed rest scores (SRS), and summed difference scores (SDS) were determined from segmental scores. Percent narrowing in each coronary artery was evaluated blindly and 70% luminal diameter narrowing was considered significant.

myocardial blood flow = details: humans, assumed, equivalent to pre-clinical studies; cited from earlier work
anesthetized naive dogs = test: cardiovascular changes in anesthetized naive dogs; format: in vivo, dog; details: intravenous injection, unpublished data
healthy volunteers = test: single-dose dosimetry and biodistribution trial in healthy subjects (MIRD); format: in vivo, human
Procedure: The following provides results obtained from a study regarding a single-dose dosimetry, biodistribution, and safety trial of imaging agent 1 in healthy subjects. Whole body PET image data for the 12 healthy volunteers were obtained using imaging agent 1 at approximately 10 minutes, 30 minutes, 50 minutes, 2 hours, 2.5 hours, 3.83 hours, and 4.5 hours post injection. Image data were attenuation corrected at the imaging site, and were quantified based on the Medical Internal Radiation Dose (MIRD) 16 methodology by Dosimetry Analysis Laboratory, CDE Dosimetry Services (CDE) to determine kinetic data in all organs showing significant uptake of activity. Dosimetry estimates were created via kinetic modeling of the quantified image data to determine residence times, and the standard MIRD methodology. These estimates were determined using 3 assumptions regarding urinary bladder voiding intervals (2.0, 3.5, and 4.8 hr). Kinetic data, residence times, and the dosimetry estimates are reported for individuals, and as summary statistics.

[2] = 12 healthy volunteers, voiding interval 3.5 hours
[3] = average, voiding interval 3.5 hours

CC(C)(C)n1ncc(OCc2ccc(COCC[18F])cc2)c(Cl)c1=O [imaging agent 1, 2-t-butyl-4-chloro-5-[4-(2-(^18F)fluoroethoxymethyl)-benzyloxy]-2H-pyridazin-3-1]
estimated human radiation dose for the heart wall (heart wall): 0.067 mSv/MBq | QTc, change from baseline after injection (control and MI rabbits; Control rabbits (n = 3), 1 min): 2 ± 15 ms | QTc, change from baseline after injection (control and MI rabbits; Control rabbits (n = 3), 5 min): -1 ± 11 ms | QTc, change from baseline after injection (control and MI rabbits; Control rabbits (n = 3), 10 min): 6 ± 20 ms | QTc, change from baseline after injection (control and MI rabbits; Control rabbits (n = 3), 20 min): 9 ± 15 ms | Diastolic AP, change from baseline after injection (control and MI rabbits; Control rabbits, 1 min): 0 ± 1 mmHg | Heart rate, change from baseline after injection (control and MI rabbits; Control rabbits, 1 min): −4 ± 2 beat/min | Mean AP, change from baseline after injection (control and MI rabbits; Control rabbits, 1 min): 0 ± 0 mmHg | Systolic AP, change from baseline after injection (control and MI rabbits; Control rabbits, 1 min): 0 ± 1 mmHg | Diastolic AP, change from baseline after injection (control and MI rabbits; Control rabbits, 5 min): −1 ± 2 mmHg | Heart rate, change from baseline after injection (control and MI rabbits; Control rabbits, 5 min): −2 ± 1 beat/min | Mean AP, change from baseline after injection (control and MI rabbits; Control rabbits, 5 min): −2 ± 0 mmHg | Systolic AP, change from baseline after injection (control and MI rabbits; Control rabbits, 5 min): −2 ± 1 mmHg | Diastolic AP, change from baseline after injection (control and MI rabbits; Control rabbits, 10 min): 0 ± 5 mmHg | Heart rate, change from baseline after injection (control and MI rabbits; Control rabbits, 10 min): −2 ± 4 beat/min | Mean AP, change from baseline after injection (control and MI rabbits; Control rabbits, 10 min): −2 ± 3 mmHg | Systolic AP, change from baseline after injection (control and MI rabbits; Control rabbits, 10 min): −1 ± 6 mmHg | Diastolic AP, change from baseline after injection (control and MI rabbits; Control rabbits, 20 min): 0 ± 5 mmHg | Heart rate, change from baseline after injection (control and MI rabbits; Control rabbits, 20 min): −4 ± 4 beat/min | Mean AP, change from baseline after injection (control and MI rabbits; Control rabbits, 20 min): −1 ± 6 mmHg | Systolic AP, change from baseline after injection (control and MI rabbits; Control rabbits, 20 min): 0 ± 5 mmHg | QTc, change from baseline after injection (control and MI rabbits; MI rabbits (n = 4), 1 min): 8 ± 5 ms | QTc, change from baseline after injection (control and MI rabbits; MI rabbits (n = 4), 5 min): 4 ± 6 ms | QTc, change from baseline after injection (control and MI rabbits; MI rabbits (n = 4), 10 min): 4 ± 8 ms | QTc, change from baseline after injection (control and MI rabbits; MI rabbits (n = 4), 20 min): 3 ± 12 ms | Diastolic AP, change from baseline after injection (control and MI rabbits; MI rabbits, 1 min): 1 ± 1 mmHg | Heart rate, change from baseline after injection (control and MI rabbits; MI rabbits, 1 min): 6 ± 5 beat/min | Mean AP, change from baseline after injection (control and MI rabbits; MI rabbits, 1 min): 2 ± 1 mmHg | Systolic AP, change from baseline after injection (control and MI rabbits; MI rabbits, 1 min): 1 ± 2 mmHg | Diastolic AP, change from baseline after injection (control and MI rabbits; MI rabbits, 5 min): 2 ± 2 mmHg | Heart rate, change from baseline after injection (control and MI rabbits; MI rabbits, 5 min): 3 ± 8 beat/min | Mean AP, change from baseline after injection (control and MI rabbits; MI rabbits, 5 min): 2 ± 2 mmHg | Systolic AP, change from baseline after injection (control and MI rabbits; MI rabbits, 5 min): 2 ± 2 mmHg | Diastolic AP, change from baseline after injection (control and MI rabbits; MI rabbits, 10 min): 1 ± 1 mmHg | Heart rate, change from baseline after injection (control and MI rabbits; MI rabbits, 10 min): 1 ± 6 beat/min | Mean AP, change from baseline after injection (control and MI rabbits; MI rabbits, 10 min): −1 ± 2 mmHg | Systolic AP, change from baseline after injection (control and MI rabbits; MI rabbits, 10 min): 0 ± 1 mmHg | Diastolic AP, change from baseline after injection (control and MI rabbits; MI rabbits, 20 min): 2 ± 2 mmHg | Heart rate, change from baseline after injection (control and MI rabbits; MI rabbits, 20 min): −7 ± 10 beat/min | Mean AP, change from baseline after injection (control and MI rabbits; MI rabbits, 20 min): 2 ± 3 mmHg | Systolic AP, change from baseline after injection (control and MI rabbits; MI rabbits, 20 min): 1 ± 7 mmHg | effect on MAP, SAP and DAP (control and MI rabbits; MI rabbits, during and after administration): no alterations of these parameters were observed | effect on ECG waveform, cardiac rhythm, HR and QTc interval (control and MI rabbits; control or MI rabbits, 1-, 5-, 10- and 20-minute post iv injection): did not alter | effect on MAP, SAP and DAP (control and MI rabbits; control rabbits): did not induce changes | SDS [1]: 12.3 ± 7 | SRS [1]: 3.8 ± 6.6 | SSS [1]: 16.1 ± 7.8 | first pass extraction fraction (myocardial blood flow): 0.94 | dose without cardiovascular changes (MAP, HR, left ventricular contractility etc) (anesthetized naive dogs): ≤ 0.01 mg/kg | EDE (effective dose equivalent), Mean (healthy volunteers; 12 healthy volunteers): 8.0E−02 rem/mCi | absorbed dose estimate, Mean, Adrenals (healthy volunteers; 12 healthy volunteers): 5.8E−02 rem/mCi | absorbed dose estimate, Mean, Brain (healthy volunteers; 12 healthy volunteers): 9.4E−02 rem/mCi | absorbed dose estimate, Mean, Breasts (healthy volunteers; 12 healthy volunteers): 3.2E−02 rem/mCi | absorbed dose estimate, Mean, Gallbladder Wall (healthy volunteers; 12 healthy volunteers): 6.4E−02 rem/mCi | absorbed dose estimate, Mean, LLI Wall (healthy volunteers; 12 healthy volunteers): 4.3E−02 rem/mCi | absorbed dose estimate, Mean, Liver (healthy volunteers; 12 healthy volunteers): 1.5E−01 rem/mCi | absorbed dose estimate, Mean, Lungs (healthy volunteers; 12 healthy volunteers): 4.2E−02 rem/mCi | absorbed dose estimate, Mean, Muscle (healthy volunteers; 12 healthy volunteers): 3.8E−02 rem/mCi | absorbed dose estimate, Mean, Osteogenic Cells (healthy volunteers; 12 healthy volunteers): 6.9E−02 rem/mCi | absorbed dose estimate, Mean, Ovaries (healthy volunteers; 12 healthy volunteers): 4.5E−02 rem/mCi | absorbed dose estimate, Mean, Pancreas (healthy volunteers; 12 healthy volunteers): 5.9E−02 rem/mCi | absorbed dose estimate, Mean, Red Marrow (healthy volunteers; 12 healthy volunteers): 6.0E−02 rem/mCi | absorbed dose estimate, Mean, Salivary (healthy volunteers; 12 healthy volunteers): 1.3E−01 rem/mCi | absorbed dose estimate, Mean, Skin (healthy volunteers; 12 healthy volunteers): 2.9E−02 rem/mCi | absorbed dose estimate, Mean, Small Intestine (healthy volunteers; 12 healthy volunteers): 4.7E−02 rem/mCi | absorbed dose estimate, Mean, Spleen (healthy volunteers; 12 healthy volunteers): 6.0E−02 rem/mCi | absorbed dose estimate, Mean, Stomach Wall (healthy volunteers; 12 healthy volunteers): 1.5E−01 rem/mCi | absorbed dose estimate, Mean, Testes (healthy volunteers; 12 healthy volunteers): 3.4E−02 rem/mCi | absorbed dose estimate, Mean, Thymus (healthy volunteers; 12 healthy volunteers): 4.1E−02 rem/mCi | absorbed dose estimate, Mean, Thyroid (healthy volunteers; 12 healthy volunteers): 1.2E−01 rem/mCi | absorbed dose estimate, Mean, Total Body (healthy volunteers; 12 healthy volunteers): 4.5E−02 rem/mCi | absorbed dose estimate, Mean, ULI Wall (healthy volunteers; 12 healthy volunteers): 4.7E−02 rem/mCi | absorbed dose estimate, Mean, Urinary Bladder Wall (healthy volunteers; 12 healthy volunteers): 8.4E−02 rem/mCi | absorbed dose estimate, Mean, Uterus (healthy volunteers; 12 healthy volunteers): 4.6E−02 rem/mCi | ED (effective dose), Mean (healthy volunteers; [2]): 0.071 rem/mCi and 7.1E−02 rem/mCi | absorbed dose estimate, Mean, Heart Wall (healthy volunteers; [2]): 0.18 rem/mCi and 1.8E−01 rem/mCi | absorbed dose estimate, Mean, Kidneys (healthy volunteers; [2]): 0.24 rem/mCi and 2.4E−01 rem/mCi | peak uptake, kidneys (healthy volunteers; average, 12 healthy volunteers): approximately 9.4 % of the injected activity | peak uptake, liver (healthy volunteers; average, 12 healthy volunteers): approximately 19.1 % of the injected activity | absorbed dose, heart wall (healthy volunteers; [3]): 0.048 mSv/MBq | absorbed dose, kidneys (healthy volunteers; [3]): 0.066 mSv/MBq | mean ED (effective dose) (healthy volunteers; voiding interval 3.5 hours): 0.019 mSv/MBq
